Test results reported in paper PMC11780439 (ACS Omega, 2025).
Read-outs that look alike come from different tables or passages of the source.

Legend:
prion protein (PrP) [1] = biological target: T1, prion protein (PrP) (Mesocricetus auratus, UniProt P04273); experiment: biochemical
T1 construct: gene PRNP

prion protein (PrP) [2] = biological target: T1, prion protein (PrP); experiment: biochemical; remark: listed apart in the source

T1 sequence (P04273 90-231 limits assumed): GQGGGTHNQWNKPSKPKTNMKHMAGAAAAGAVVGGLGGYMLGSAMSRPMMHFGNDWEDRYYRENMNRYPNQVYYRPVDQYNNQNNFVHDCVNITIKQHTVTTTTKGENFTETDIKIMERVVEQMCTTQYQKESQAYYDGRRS

| SMILES | IC50 (prion protein (PrP) [1]) [µM] | IC50 (prion protein (PrP) [2]) [µM] |
| --- | --- | --- |
| O=C(/C=C/c1ccc(O)c(O)c1)O[C@@H]1C[C@](O)(C(=O)O)C[C@@H](O)[C@H]1O [CA, chlorogenic acid] | 64.4 ± 12.1 |  |
| O=C(O[C@@H]1Cc2c(O)cc(O)cc2O[C@@H]1c1cc(O)c(O)c(O)c1)c1cc(O)c(O)c(O)c1 [EGCG, epigallocatechin gallate] |  | 2.84 ± 0.97 |
| O=C(/C=C/c1ccc(O)c(O)c1)O[C@@H]1C[C@@](O)(C(=O)O)C[C@@H](O)[C@@H]1O [NCA, neochlorogenic acid] | 35.3 ± 7.09 |  |
